Data set [1] deals with subgenomic RNA-replicon HCV (genotype 1b, clon Con1). In words: HCV replicon immunoenzymatic assay in Huh7 cells, genotype 1b. It counts as cell-based. The conditions noted are these: Hepatitis C virus, Huh-7, read-out: gT1b FBS EC50. The protocol: Determination of antiviral activity of the compounds of the general formula 1 (inhibiting ability of NS5A protein).
Inhibiting ability of compounds of formula 1 of NS5A protein was determined in the human hepatoma cell line Huh7, comprising subgenomic RNA-replicon HCV (genotype 1b, don Con1). A version of immumoenzymatic assay (IEA) on viral protein NS5A in 96-well plate was used as an experimental method. Cytotoxicity of the compounds was estimated in parallel regime.
Cells Huh7 were seeded in 96-well plate (7.5×10^3 cells to each well in 100 μl of culture medium). Solutions of the tested compounds in DMEM medium {DMEM 1×; Source: Cellgro; Catalogue: 10-013-CV} were prepared immediately before use. Eleven serial three fold dilutions with variation of concentrations from 20 nM to 0.2 pM were prepared. In 4 hours after seeding, serial dilutions of the compounds were added to the cells (100 μl to each well). Final concentration of tested compounds was varied from 10 nM to 0.1 pM, and DMSO—0.5%. If it was necessary, higher concentrations of the disclosed azoles were investigated. Each dilution of the compound was tested on two identical wells. […] The reaction was arrested by the addition of 2N H2SO4 in amount of 100 μl/well, and optical density (wavelength 490 nm) was measured by means of multiscan plate reader Victor3 V 1420 (Perkin Elmer). […]
(In general: Replicon systems follow genome replication, usually without infectious particles.)

In another data set the test system is genotype 1a HCV. In words: HCV replicon inhibitory activity, genotype 1a. It counts as cell-based. Conditions: Hepatitis C virus; HCV genotype 1a, FBS; read-out: gT1a FBS EC50.
A further data set concerns genotype 2a HCV. In words: HCV replicon inhibitory activity, genotype 2a. It counts as cell-based. Conditions: Hepatitis C virus; HCV genotype 2a, FBS; read-out: gT2a FBS EC50.
Data set [2] is described as follows: Investigation of storage of naphthalene-1,5-disulfonates (amount of admixtures, UV 220 nm). It counts as physicochemical. Conditions: for Max admixture / Sum of admixtures: refrigerator, 4.7° C. The protocol:
Investigation of storage of naphthalene-1,5-disulfonates of the general formula 1. All samples were stored in glass vials sealed with rubber cork and aluminum caps, in a refrigerator at a temperature of about ˜4.7 ° C. The amount of admixtures was determined by method of internal normalization, detection was carried out using UV detector at 220 nm. Below are given the test results for compound 1.1 showing their stability at temperature 4.7° C.

The structures appear in SMILES notation. pEC50: −log10 of the molar value. Bounds are passed on as bounds.

Results on 1 compound are retold here after patent US20160031859A1, “Alkyl [(S)-1-((S)-2--buta-1,3-diynyl)-phenyl]-1H-imidazol-2-yl}-pyrrolidine-1-carbonyl)-2-methyl-propyl]-carbamate naphthalene-1,5-disulfonate, pharmaceutical composition, medicament, method for treatment of viral diseases” (priority 2013, published 2016).

As usually defined, the pEC50 is −log10 of the EC50, conventionally taken in molar units.

Turning to `COC(=O)N[C@H](C(=O)N1CCC[C@H]1c1ncc(C#CC#Cc2ccc(-c3cnc([C@@H]4CCCN4C(=O)[C@@H](NC(=O)OC)C(C)C)[nH]3)cc2)[nH]1)C(C)C` [Compound 1.1, methyl [(S)-1-((S)-2-{5-[4-(4-{2-[(S)-1-((S)-2-methoxycarbonylamino-3-methyl-butyryl)-pyrrolidin-2-yl]-3H-imidazol-4-yl}-buta-1,3-diynyl)-phenyl]-1H-imidazol-2-yl}-pyrrolidine-1-carbonyl)-2-methylpropyl]-carbamate naphthalene-1,5-disulfonate], the pEC50 (in data set [1]; in the data set on genotype 1a HCV; in the data set with genotype 2a HCV) was above 9.00 each time. Also, the Max admixture in data set [2] (1 week storage) is reported as 0.348%; in data set [2] (4 weeks storage) it was 0.341%; in data set [2] (20 weeks storage), 0.298%; in data set [2] (before the test), 0.342%. Besides, the Sum of admixtures is given as 1.369% in data set [2] (1 week storage), 1.506% in data set [2] (4 weeks storage), 1.493% in data set [2] (20 weeks storage) and 1.312% in data set [2] (before the test). Also, the “storage stability, in words” value in data set [2] (temperature 4.7° C.) is “stability”.
